# Laboratory results from US8512995B2, “DNA encoding polypeptide involved in biosynthesis of herboxidiene” (Eisai R&D Management Co., Ltd., priority 2008, dated 2013).
# Test system: WiDr human colon cancer cells
# Experiment: Proliferation inhibitory action on WiDr human colon cancer cells (CellTiter-Glo luminescence)
# Assay type: cell-based
# Settings: 72 h, 3 days culture, CellTiter-Glo luciferase luminescence as indicator of living cells
# Experimental: WiDr human colon cancer cells, which had been cultured in an RPMI1640 medium (manufactured by SIGMA) containing 10% fetal bovine serum, penicillin (100 units/mL) and streptomycin (100 μg/mL), were dispersed on a 96-well plate in an amount of 2×10^3 cells/90 μl/well. The cells were cultured in a CO2 incubator overnight. Thereafter, 10 μl of the aforementioned culture solution containing the compound HX354 or HX355 of 3-fold dilution series used in the aforementioned examples was added to the culture, and the mixture was then cultured. Three days later, 50 μl of CellTiter-Glo Luminescent Cell Viability Assay (Promega) was added to the culture, the mixture was then shaken for 2 minutes, and it was then left at rest for 15 minutes. Thereafter, luciferase luminescence was measured with a luminometer, and the measured luminescence was used as an indicator for the number of living cells
# The concentrations (IC50 values) of HX354 and HX355, where the proliferation of the WiDr human colon cancer cells was inhibited by were obtained.
row,Structure (SMILES),IC50 [nM]
1,CCC(O)C(C)C1OC1(C)CC(C)/C=C/C=C(\C)C1OC(CC(=O)O)CCC1C (centres unmarked) [HX355],168
2,CCC(OC)C(C)C1OC1(C)CC(C)/C=C/C=C(\C)C1OC(CC(=O)O)CCC1C (centres unmarked) [HX354],91
